The NIST ThermoML archive (doi:10.1021/je201014c)

Assay: mn = molality of the nth substance listed, in mol/kg
Details: 100 kPa, Liquid

CCCCn1cc[n+](C)c1.F[B-](F)(F)F [1-butyl-3-methylimidazolium tetrafluoroborate] + CN(C)C=O
Alternating current cell with electrodes
Details	molar conductivity [S·m2/mol]
283.15 K, m1 = 5.542e-05	0.007204
283.15 K, m1 = 0.0002915	0.00709
283.15 K, m1 = 0.0004895	0.007031
283.15 K, m1 = 0.0006942	0.006981
283.15 K, m1 = 0.001153	0.006893
283.15 K, m1 = 0.001938	0.006777
283.15 K, m1 = 0.002927	0.006662
283.15 K, m1 = 0.003888	0.00657
283.15 K, m1 = 0.005903	0.006415
283.15 K, m1 = 0.008004	0.006288
283.15 K, m1 = 0.009964	0.006189
283.15 K, m1 = 0.012	0.0061
283.15 K, m1 = 0.01485	0.00599
288.15 K, m1 = 0.0001289	0.007713
288.15 K, m1 = 0.0002628	0.007644
288.15 K, m1 = 0.000427	0.007581
288.15 K, m1 = 0.0006069	0.007526
288.15 K, m1 = 0.001022	0.007427
288.15 K, m1 = 0.001697	0.007306
288.15 K, m1 = 0.002546	0.007188
288.15 K, m1 = 0.003454	0.007086
288.15 K, m1 = 0.005179	0.006929
288.15 K, m1 = 0.007043	0.006794
288.15 K, m1 = 0.008772	0.006689
288.15 K, m1 = 0.01186	0.006533
288.15 K, m1 = 0.01492	0.006408
293.15 K, m1 = 0.000111	0.00828
293.15 K, m1 = 0.0002943	0.008172
293.15 K, m1 = 0.0004483	0.008108
293.15 K, m1 = 0.000694	0.008027
293.15 K, m1 = 0.001218	0.007899
293.15 K, m1 = 0.001996	0.007759
293.15 K, m1 = 0.002935	0.007628
293.15 K, m1 = 0.003937	0.007515
293.15 K, m1 = 0.005916	0.007336
293.15 K, m1 = 0.007933	0.00719
293.15 K, m1 = 0.01009	0.007059
293.15 K, m1 = 0.01201	0.00696
293.15 K, m1 = 0.01495	0.006833
298.15 K, m1 = 0.0001246	0.008822
298.15 K, m1 = 0.0003199	0.0087
298.15 K, m1 = 0.000527	0.008612
298.15 K, m1 = 0.000691	0.008555
298.15 K, m1 = 0.001175	0.008424
298.15 K, m1 = 0.001926	0.008273
298.15 K, m1 = 0.002929	0.008121
298.15 K, m1 = 0.003956	0.007996
298.15 K, m1 = 0.005953	0.007802
298.15 K, m1 = 0.008044	0.00764
298.15 K, m1 = 0.009999	0.007512
298.15 K, m1 = 0.01205	0.007397
298.15 K, m1 = 0.0149	0.007265
303.15 K, m1 = 0.0001037	0.00939
303.15 K, m1 = 0.0002814	0.009262
303.15 K, m1 = 0.000494	0.00916
303.15 K, m1 = 0.0007407	0.009069
303.15 K, m1 = 0.001192	0.00894
303.15 K, m1 = 0.001886	0.00879
303.15 K, m1 = 0.002913	0.008621
303.15 K, m1 = 0.003912	0.008489
303.15 K, m1 = 0.006107	0.008261
303.15 K, m1 = 0.007974	0.008107
303.15 K, m1 = 0.009993	0.007966
303.15 K, m1 = 0.01195	0.007849
303.15 K, m1 = 0.01492	0.007699
308.15 K, m1 = 5.763e-05	0.009991
308.15 K, m1 = 0.0002447	0.009826
308.15 K, m1 = 0.0004495	0.009716
308.15 K, m1 = 0.0006821	0.009621
308.15 K, m1 = 0.001183	0.009467
308.15 K, m1 = 0.001933	0.009295
308.15 K, m1 = 0.002911	0.009124
308.15 K, m1 = 0.003919	0.008981
308.15 K, m1 = 0.005927	0.008756
308.15 K, m1 = 0.008008	0.008573
308.15 K, m1 = 0.009997	0.008426
308.15 K, m1 = 0.01201	0.008298
308.15 K, m1 = 0.0149	0.00814
313.15 K, m1 = 9.063e-05	0.0105
313.15 K, m1 = 0.0002952	0.01034
313.15 K, m1 = 0.0004868	0.01024
313.15 K, m1 = 0.0007015	0.01015
313.15 K, m1 = 0.001177	0.009997
313.15 K, m1 = 0.001951	0.009811
313.15 K, m1 = 0.002946	0.009626
313.15 K, m1 = 0.003906	0.009482
313.15 K, m1 = 0.005912	0.009242
313.15 K, m1 = 0.007925	0.009053
313.15 K, m1 = 0.00996	0.008895
313.15 K, m1 = 0.01199	0.008759
313.15 K, m1 = 0.01511	0.008574
318.15 K, m1 = 9.401e-05	0.01103
318.15 K, m1 = 0.0002791	0.01089
318.15 K, m1 = 0.0004526	0.01079
318.15 K, m1 = 0.0006468	0.01071
318.15 K, m1 = 0.001144	0.01054
318.15 K, m1 = 0.001896	0.01035
318.15 K, m1 = 0.0029	0.01015
318.15 K, m1 = 0.003892	0.009988
318.15 K, m1 = 0.005917	0.00973
318.15 K, m1 = 0.00798	0.009527
318.15 K, m1 = 0.009945	0.009368
318.15 K, m1 = 0.01195	0.009227
318.15 K, m1 = 0.01488	0.009038

CCn1cc[n+](C)c1.F[B-](F)(F)F [1-ethyl-3-methylimidazolium tetrafluoroborate] + CN(C)C=O
Direct current cell with electrodes
Details	molar conductivity [S·m2/mol]
283.15 K, m1 = 0.0001021	0.007524
283.15 K, m1 = 0.0002894	0.00744
283.15 K, m1 = 0.0004617	0.007387
283.15 K, m1 = 0.000707	0.007326
283.15 K, m1 = 0.001158	0.007238
283.15 K, m1 = 0.001876	0.007128
283.15 K, m1 = 0.002909	0.007001
283.15 K, m1 = 0.00391	0.006899
283.15 K, m1 = 0.006046	0.006724
283.15 K, m1 = 0.008043	0.006596
283.15 K, m1 = 0.01002	0.006492
283.15 K, m1 = 0.01201	0.006403
283.15 K, m1 = 0.0149	0.006286
288.15 K, m1 = 9.159e-05	0.008075
288.15 K, m1 = 0.0002695	0.007983
288.15 K, m1 = 0.0005098	0.007901
288.15 K, m1 = 0.0006932	0.007851
288.15 K, m1 = 0.001168	0.007746
288.15 K, m1 = 0.001915	0.007619
288.15 K, m1 = 0.002887	0.007489
288.15 K, m1 = 0.003934	0.007374
288.15 K, m1 = 0.005914	0.007199
288.15 K, m1 = 0.007975	0.007057
288.15 K, m1 = 0.009937	0.006944
288.15 K, m1 = 0.01205	0.00684
288.15 K, m1 = 0.01487	0.006715
293.15 K, m1 = 0.0001225	0.008604
293.15 K, m1 = 0.0002931	0.008516
293.15 K, m1 = 0.0004907	0.008442
293.15 K, m1 = 0.0007255	0.008372
293.15 K, m1 = 0.001177	0.008263
293.15 K, m1 = 0.001892	0.00813
293.15 K, m1 = 0.002911	0.007981
293.15 K, m1 = 0.003932	0.00786
293.15 K, m1 = 0.005979	0.007668
293.15 K, m1 = 0.007979	0.00752
293.15 K, m1 = 0.009955	0.007398
293.15 K, m1 = 0.01193	0.007292
293.15 K, m1 = 0.0148	0.007155
298.15 K, m1 = 0.0001133	0.009167
298.15 K, m1 = 0.0002704	0.009077
298.15 K, m1 = 0.000473	0.008993
298.15 K, m1 = 0.0006719	0.008926
298.15 K, m1 = 0.001151	0.008798
298.15 K, m1 = 0.001932	0.008639
298.15 K, m1 = 0.00291	0.008486
298.15 K, m1 = 0.003882	0.008361
298.15 K, m1 = 0.005957	0.008152
298.15 K, m1 = 0.007912	0.007996
298.15 K, m1 = 0.009961	0.007859
298.15 K, m1 = 0.012	0.007742
298.15 K, m1 = 0.01485	0.007598
303.15 K, m1 = 0.0001433	0.009709
303.15 K, m1 = 0.0002976	0.009622
303.15 K, m1 = 0.000507	0.009532
303.15 K, m1 = 0.0007136	0.00946
303.15 K, m1 = 0.001172	0.00933
303.15 K, m1 = 0.001894	0.009172
303.15 K, m1 = 0.002913	0.008999
303.15 K, m1 = 0.003926	0.008861
303.15 K, m1 = 0.005879	0.008649
303.15 K, m1 = 0.007956	0.008471
303.15 K, m1 = 0.009924	0.00833
303.15 K, m1 = 0.01202	0.0082
303.15 K, m1 = 0.01489	0.00805
308.15 K, m1 = 0.0001026	0.01031
308.15 K, m1 = 0.0003641	0.010155
308.15 K, m1 = 0.0005016	0.010095
308.15 K, m1 = 0.0006664	0.010033
308.15 K, m1 = 0.001147	0.009884
308.15 K, m1 = 0.001947	0.009697
308.15 K, m1 = 0.002894	0.009525
308.15 K, m1 = 0.003883	0.009379
308.15 K, m1 = 0.00584	0.009149
308.15 K, m1 = 0.007991	0.008948
308.15 K, m1 = 0.00998	0.008792
308.15 K, m1 = 0.01192	0.008661
308.15 K, m1 = 0.01486	0.008494
313.15 K, m1 = 9.519e-05	0.010895
313.15 K, m1 = 0.0002775	0.010772
313.15 K, m1 = 0.000472	0.010677
313.15 K, m1 = 0.0006836	0.010592
313.15 K, m1 = 0.001159	0.010438
313.15 K, m1 = 0.001948	0.010242
313.15 K, m1 = 0.002909	0.010057
313.15 K, m1 = 0.003934	0.009897
313.15 K, m1 = 0.005955	0.009647
313.15 K, m1 = 0.007964	0.009449
313.15 K, m1 = 0.009905	0.009289
313.15 K, m1 = 0.01192	0.009147
313.15 K, m1 = 0.0152	0.008968
318.15 K, m1 = 0.0001002	0.011475
318.15 K, m1 = 0.0002722	0.011357
318.15 K, m1 = 0.0004294	0.011275
318.15 K, m1 = 0.0006853	0.011165
318.15 K, m1 = 0.001173	0.011
318.15 K, m1 = 0.001899	0.010808
318.15 K, m1 = 0.002947	0.010593
318.15 K, m1 = 0.003909	0.010433
318.15 K, m1 = 0.005941	0.010163
318.15 K, m1 = 0.007935	0.009952
318.15 K, m1 = 0.009999	0.00977
318.15 K, m1 = 0.012	0.009623
318.15 K, m1 = 0.01494	0.009458
